Test results taken from PubChem BioAssay (NCI).
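Step 1: Grow cells in 96-well plates. Step 2: Expose to compound for 48 hours at 5 concentrations. Step 3: Interpolate endpoints linearly; if unreached, use highest concentration. GI50 is the concentration that inhibits growth by half. TGI marks complete inhibition of growth.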

Key:
Test in all cases: DTP human tumour cell line panel, 48 h
SK-MEL-28 melanoma = test system: SK-MEL-28 melanoma
HL-60(TB) leukemia = test system: HL-60(TB) leukemia
OVCAR-8 ovarian = test system: OVCAR-8 ovarian
CCRF-CEM leukemia = test system: CCRF-CEM leukemia
UACC-62 melanoma = test system: UACC-62 melanoma
BT-549 breast = test system: BT-549 breast
HOP-92 NSCLC = test system: HOP-92 NSCLC
KM12 colon = test system: KM12 colon
DU-145 prostate = test system: DU-145 prostate
NCI-H226 lung = test system: NCI-H226 lung
OVCAR-4 ovarian = test system: OVCAR-4 ovarian
SK-OV-3 ovarian = test system: SK-OV-3 ovarian
HCC-2998 colon = test system: HCC-2998 colon
RPMI-8226 leukemia = test system: RPMI-8226 leukemia
EKVX NSCLC = test system: EKVX NSCLC
MCF7 breast = test system: MCF7 breast
NCI-H23 lung = test system: NCI-H23 lung
NCI-H460 lung = test system: NCI-H460 lung
UACC-257 melanoma = test system: UACC-257 melanoma
LOX IMVI melanoma = test system: LOX IMVI melanoma
MDA-MB-435 = test system: MDA-MB-435
A549 NSCLC = test system: A549 NSCLC
OVCAR-5 ovarian = test system: OVCAR-5 ovarian
PC-3 prostate = test system: PC-3 prostate
SR leukemia = test system: SR leukemia
HT29 colon = test system: HT29 colon
SNB-75 CNS = test system: SNB-75 CNS
U251 CNS = test system: U251 CNS
IGROV1 ovarian = test system: IGROV1 ovarian
K-562 leukemia = test system: K-562 leukemia
SF-268 CNS = test system: SF-268 CNS
HCT-116 colon = test system: HCT-116 colon
UO-31 renal = test system: UO-31 renal
NCI/ADR-RES ovarian = test system: NCI/ADR-RES ovarian
SF-539 CNS = test system: SF-539 CNS
HCT-15 colon = test system: HCT-15 colon
A498 renal = test system: A498 renal
SNB-19 CNS = test system: SNB-19 CNS
SW-620 colon = test system: SW-620 colon
RXF 393 renal = test system: RXF 393 renal
M14 melanoma = test system: M14 melanoma
786-0 renal = test system: 786-0 renal
SN12C renal = test system: SN12C renal
MOLT-4 leukemia = test system: MOLT-4 leukemia
NCI-H522 lung = test system: NCI-H522 lung
TK-10 renal = test system: TK-10 renal
SF-295 CNS = test system: SF-295 CNS
ACHN renal = test system: ACHN renal
SK-MEL-5 melanoma = test system: SK-MEL-5 melanoma
HOP-62 NSCLC = test system: HOP-62 NSCLC
T-47D breast = test system: T-47D breast
SK-MEL-2 melanoma = test system: SK-MEL-2 melanoma
COLO 205 colon = test system: COLO 205 colon
HS 578T breast = test system: HS 578T breast
MDA-MB-231 breast = test system: MDA-MB-231 breast
MALME-3M melanoma = test system: MALME-3M melanoma

Oc1ccc(CSc2nnc(-c3ccncc3)o2)c2cccnc12
GI50 (SK-MEL-28 melanoma): 4.37 µM | TGI (SK-MEL-28 melanoma): > 100 µM | GI50 (HL-60(TB) leukemia): 2.9 µM | TGI (HL-60(TB) leukemia): 50.7 µM | GI50 (OVCAR-8 ovarian): 0.62 µM | TGI (OVCAR-8 ovarian): > 100 µM | GI50 (CCRF-CEM leukemia): 2.53 µM | TGI (CCRF-CEM leukemia): > 100 µM | GI50 (UACC-62 melanoma): 2.87 µM | TGI (UACC-62 melanoma): > 100 µM | GI50 (BT-549 breast): 1.71 µM | TGI (BT-549 breast): > 100 µM | GI50 (HOP-92 NSCLC): 0.412 µM | TGI (HOP-92 NSCLC): 2.73 µM | GI50 (KM12 colon): 3.9 µM | TGI (KM12 colon): > 100 µM | GI50 (DU-145 prostate): 0.779 µM | TGI (DU-145 prostate): > 100 µM | GI50 (NCI-H226 lung): 3.6 µM | TGI (NCI-H226 lung): > 100 µM | GI50 (OVCAR-4 ovarian): 3.19 µM | TGI (OVCAR-4 ovarian): > 100 µM | GI50 (SK-OV-3 ovarian): 3.11 µM | TGI (SK-OV-3 ovarian): 9.81 µM | GI50 (HCC-2998 colon): 3.38 µM | TGI (HCC-2998 colon): > 100 µM | GI50 (RPMI-8226 leukemia): 0.524 µM | TGI (RPMI-8226 leukemia): 4.02 µM | GI50 (EKVX NSCLC): 2.74 µM | TGI (EKVX NSCLC): > 100 µM | GI50 (MCF7 breast): 0.403 µM | TGI (MCF7 breast): > 100 µM | GI50 (NCI-H23 lung): 0.951 µM | TGI (NCI-H23 lung): > 100 µM | GI50 (NCI-H460 lung): 0.397 µM | TGI (NCI-H460 lung): > 100 µM | GI50 (UACC-257 melanoma): 2.61 µM | TGI (UACC-257 melanoma): 8.38 µM | GI50 (LOX IMVI melanoma): 0.864 µM | TGI (LOX IMVI melanoma): > 100 µM | GI50 (MDA-MB-435): 0.613 µM | TGI (MDA-MB-435): > 100 µM | GI50 (A549 NSCLC): 0.767 µM | TGI (A549 NSCLC): > 100 µM | GI50 (OVCAR-5 ovarian): 3.54 µM | TGI (OVCAR-5 ovarian): > 100 µM | GI50 (PC-3 prostate): 0.626 µM | TGI (PC-3 prostate): 9.34 µM | GI50 (SR leukemia): 2.21 µM | TGI (SR leukemia): > 100 µM | GI50 (HT29 colon): 3.46 µM | TGI (HT29 colon): > 100 µM | GI50 (SNB-75 CNS): 1.52 µM | TGI (SNB-75 CNS): 25.5 µM | GI50 (U251 CNS): 0.494 µM | TGI (U251 CNS): > 100 µM | GI50 (IGROV1 ovarian): 3.33 µM | TGI (IGROV1 ovarian): > 100 µM | GI50 (K-562 leukemia): 0.622 µM | TGI (K-562 leukemia): > 100 µM | GI50 (SF-268 CNS): 2.18 µM | TGI (SF-268 CNS): > 100 µM | GI50 (HCT-116 colon): 0.68 µM | TGI (HCT-116 colon): > 100 µM | GI50 (UO-31 renal): 1.83 µM | TGI (UO-31 renal): > 100 µM | GI50 (NCI/ADR-RES ovarian): 3.95 µM | TGI (NCI/ADR-RES ovarian): > 100 µM | GI50 (SF-539 CNS): 2.18 µM | TGI (SF-539 CNS): > 100 µM | GI50 (HCT-15 colon): 2.74 µM | TGI (HCT-15 colon): > 100 µM | GI50 (A498 renal): 2.64 µM | TGI (A498 renal): 9.52 µM | GI50 (SNB-19 CNS): 1.47 µM | TGI (SNB-19 CNS): > 100 µM | GI50 (SW-620 colon): 1.37 µM | TGI (SW-620 colon): > 100 µM | GI50 (RXF 393 renal): 2.41 µM | TGI (RXF 393 renal): > 100 µM | GI50 (M14 melanoma): 2.11 µM | TGI (M14 melanoma): > 100 µM | GI50 (786-0 renal): 3.81 µM | TGI (786-0 renal): 70.2 µM | GI50 (SN12C renal): 0.619 µM | TGI (SN12C renal): 6.13 µM | GI50 (MOLT-4 leukemia): 3.71 µM | TGI (MOLT-4 leukemia): > 100 µM | GI50 (NCI-H522 lung): 0.558 µM | TGI (NCI-H522 lung): > 100 µM | GI50 (TK-10 renal): 3.36 µM | TGI (TK-10 renal): > 100 µM | GI50 (SF-295 CNS): 1.75 µM | TGI (SF-295 CNS): 8.32 µM | GI50 (ACHN renal): 2.28 µM | TGI (ACHN renal): 8.31 µM | GI50 (SK-MEL-5 melanoma): 1.03 µM | TGI (SK-MEL-5 melanoma): 2.63 µM | GI50 (HOP-62 NSCLC): 2.37 µM | TGI (HOP-62 NSCLC): > 100 µM | GI50 (T-47D breast): 3.08 µM | TGI (T-47D breast): > 100 µM | GI50 (SK-MEL-2 melanoma): 2.11 µM | TGI (SK-MEL-2 melanoma): 7.66 µM | GI50 (COLO 205 colon): 4.32 µM | TGI (COLO 205 colon): > 100 µM | GI50 (HS 578T breast): 0.751 µM | TGI (HS 578T breast): 58.7 µM | GI50 (MDA-MB-231 breast): 1.89 µM | TGI (MDA-MB-231 breast): 4.87 µM | GI50 (MALME-3M melanoma): 2.03 µM | TGI (MALME-3M melanoma): 6.88 µM
